Consider six compounds from PMC8848031 (Saudi Journal of Biological Sciences, 2021).

“And” between values parts separate entries of the source, which are not always exact repeats. Equal values may be shown once.

For orientation: IC50 means the point on the concentration scale where inhibition reaches its midpoint. A low value points to greater potency in that assay. For orientation: Ki means a dissociation constant, usually derived from enzyme kinetics or from competition with a known ligand. Higher therefore signals a looser hold on the target. The term Vmax denotes the top rate of the reaction or transport when substrate is in excess.

In experiment [1] the target is Saccharomyces cerevisiae α-glucosidase (E.C 3.2.1.20) (Saccharomyces cerevisiae, UniProt P53341). Nature of the experiment: Alpha-glucosidase inhibition assay. The class given is biochemical. The following applies: Alpha-glucosidase inhibition IC50, isolated compounds; acarbose positive control.
The target of experiment [2] is alpha-glucosidase (Saccharomyces cerevisiae, UniProt P53341). As to the kind of experiment: Inhibitory type assay of BM3 on alpha-glucosidase. The experiment is classed as biochemical.
The subject of experiment [3] is alpha-glucosidase. The following applies: kinetic studies; ref Adisakwattana et al. (2009); cited from earlier work.
In experiment [4] the test system is alpha-glucosidase. The following applies: ref Wu et al., 2017; cited from earlier work.
For experiment [5], the system named is pancreatic lipase enzyme. The following applies: extracted from T. stans leaves; ref [28]; cited from earlier work.

Sequence of alpha-glucosidase (Saccharomyces cerevisiae, UniProt P53341) (P53341 whole entry): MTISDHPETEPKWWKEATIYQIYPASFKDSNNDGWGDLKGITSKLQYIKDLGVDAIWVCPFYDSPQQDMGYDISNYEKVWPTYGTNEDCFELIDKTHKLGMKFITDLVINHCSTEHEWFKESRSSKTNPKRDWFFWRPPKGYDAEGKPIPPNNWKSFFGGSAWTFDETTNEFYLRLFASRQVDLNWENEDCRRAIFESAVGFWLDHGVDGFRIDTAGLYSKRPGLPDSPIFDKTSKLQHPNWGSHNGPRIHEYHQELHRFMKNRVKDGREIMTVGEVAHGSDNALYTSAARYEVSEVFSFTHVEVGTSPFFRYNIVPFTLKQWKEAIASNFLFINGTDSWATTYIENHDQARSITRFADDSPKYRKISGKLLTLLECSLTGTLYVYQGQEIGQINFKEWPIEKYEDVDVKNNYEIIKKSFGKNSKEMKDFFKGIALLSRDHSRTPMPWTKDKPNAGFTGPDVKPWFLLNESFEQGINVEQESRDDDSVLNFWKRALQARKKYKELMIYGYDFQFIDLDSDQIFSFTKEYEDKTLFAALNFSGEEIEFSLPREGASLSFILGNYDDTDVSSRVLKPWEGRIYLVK
Sequence of Saccharomyces cerevisiae α-glucosidase (E.C 3.2.1.20) (P53341 whole entry): as above

As to `COC(=O)c1cc(O)c(O)c(O)c1` [BM2, methyl gallate], in experiment [1], the concentration for half-maximal inhibition (IC50) stood at 71 ± 2.1 µM.

Regarding `COC(=O)c1cc(O)c(O)c(OC(=O)c2cc(O)c(O)c(O)c2)c1` [BM3, 3-O-galloylgallic acid methyl ester], the IC50 in experiment [1] came out at 18.2 ± 0.8 µM. The compound also displayed a Ki in experiment [2] of 31.2 µM. Also, the inhibition type entry in experiment [2] (Lineweaver-Burk plots, pNPG 1, 2, 4 mM) is “competitive”. The maximal velocity (Vmax) in experiment [2] (no effect of increasing BM3 concentration) came to 0.049 µM/min. For `O=c1c(O[C@@H]2O[C@H](CO)[C@@H](O)[C@H](O)[C@H]2O)c(-c2ccc(O)c(O)c2)oc2cc(O)cc(O)c12` [NC2, isoquercitrin], in experiment [1], the IC50 is 35.6 µM and 36.8 µM.

Take `O=C(O)/C=C/c1ccc(O)c(O)c1` [NC3, caffeic acid]: in experiment [3], the inhibition type result is listed as “non-competitive”.

With `C[C@H]1[C@H](C)CC[C@]2(C(=O)O)CC[C@]3(C)C(=CC[C@@H]4[C@@]5(C)CC[C@H](O)C(C)(C)[C@@H]5CC[C@]43C)[C@H]12` [TS1, ursolic acid], in experiment [1], 39.2 ± 0.6 µM corresponded to half-maximal inhibition (IC50). In addition, the inhibition of alpha-glucosidase entry in experiment [4] was “strong inhibition”. Regarding `COc1cc(-c2cc(=O)c3c(O)cc(O)cc3o2)ccc1O` [TS3, chrysoeriol], the “inhibition of pancreatic lipase enzyme” value in experiment [5] is listed as “strong inhibition”.
